In patent US20140137294A1, “GLUCOSINOLATE TRANSPORTER PROTEIN AND USES THEREOF” (UNIVERSITY OF COPENHAGEN, priority 2010, published 2014):
Positions count from the first letter of the chain named. Names and notes keep the numbering of the source. Where a SMILES comes first, the peptide text is derived from it.

Tests used:
Format in all cases: cell-based
[1] = target: T1, AtGTR1 (Arabidopsis thaliana, UniProt Q944G5); assay: Substrate-induced currents in voltage-clamped Xenopus oocytes expressing AtGTR1; settings: for currents on perfusion: 133 μM, pH 5, AtGTR1
T1 construct: A library of Arabidopsis transporters available as full length cDNAs from the RIKEN bioresource center; expressed in transfected cells; host or cells: Xenopus oocytes injected with in vitro transcribed cRNA
T1 sequence (Q944G5 31-636 limits assumed): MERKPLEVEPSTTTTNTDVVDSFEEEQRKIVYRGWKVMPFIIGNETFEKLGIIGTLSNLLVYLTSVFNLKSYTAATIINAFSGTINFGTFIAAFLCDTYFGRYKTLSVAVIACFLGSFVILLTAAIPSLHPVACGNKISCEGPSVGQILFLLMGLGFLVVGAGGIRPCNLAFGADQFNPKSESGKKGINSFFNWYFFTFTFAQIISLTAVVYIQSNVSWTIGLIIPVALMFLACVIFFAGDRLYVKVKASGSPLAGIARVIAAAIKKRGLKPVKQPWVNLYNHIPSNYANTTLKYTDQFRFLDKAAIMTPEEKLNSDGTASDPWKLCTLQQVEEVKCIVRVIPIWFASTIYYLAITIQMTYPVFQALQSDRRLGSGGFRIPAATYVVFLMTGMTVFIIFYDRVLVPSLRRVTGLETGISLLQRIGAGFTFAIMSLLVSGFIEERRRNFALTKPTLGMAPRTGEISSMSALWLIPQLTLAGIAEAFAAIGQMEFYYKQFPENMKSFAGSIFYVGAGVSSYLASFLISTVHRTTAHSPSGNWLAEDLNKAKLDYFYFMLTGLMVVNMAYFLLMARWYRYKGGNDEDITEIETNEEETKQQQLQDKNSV

[2] = target: T2, AtGTR2 (Arabidopsis thaliana, UniProt Q9LV10); assay: Glucosinolate uptake by AtGTR2 expressing oocytes, LC-MS analysis of oocyte extracts; settings: data not shown
T2 construct: expressed in transfected cells; host or cells: Xenopus oocytes injected with in vitro transcribed cRNA (vector pNB1u)
T2 sequence (Q9LV10 1-616): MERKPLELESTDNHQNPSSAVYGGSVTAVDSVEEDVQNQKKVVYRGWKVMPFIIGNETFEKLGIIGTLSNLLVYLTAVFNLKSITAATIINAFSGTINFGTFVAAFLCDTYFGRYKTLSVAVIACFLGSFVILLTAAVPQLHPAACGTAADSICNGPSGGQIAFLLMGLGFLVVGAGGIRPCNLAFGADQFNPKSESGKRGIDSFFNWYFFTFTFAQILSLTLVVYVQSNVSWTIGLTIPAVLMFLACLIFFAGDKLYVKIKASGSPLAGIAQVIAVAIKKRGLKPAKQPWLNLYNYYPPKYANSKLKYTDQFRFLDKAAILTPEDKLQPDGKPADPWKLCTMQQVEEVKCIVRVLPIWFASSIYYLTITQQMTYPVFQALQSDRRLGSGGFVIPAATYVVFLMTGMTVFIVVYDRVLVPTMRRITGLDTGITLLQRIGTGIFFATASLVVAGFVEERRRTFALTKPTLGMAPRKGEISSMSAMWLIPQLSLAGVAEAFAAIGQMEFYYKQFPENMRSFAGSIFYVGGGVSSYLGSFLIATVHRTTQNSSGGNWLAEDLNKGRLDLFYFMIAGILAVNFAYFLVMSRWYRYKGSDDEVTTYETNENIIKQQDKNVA

[3] = system: Xenopus oocytes; assay: 4-MTB import by phosphorylation/dephosphorylation mimicking GTR1 and GTR2 constructs in oocytes (LC-MS); settings: 100 μM 4-MTB, Kulori pH 5, one hour

## C[S+]([O-])CCCC/C(=N/OS(=O)(=O)O)S[C@@H]1O[C@H](CO)[C@@H](O)[C@H](O)[C@H]1O (stereo partly shown)
[1]; 100 μM substrate, pH 5, voltage clamped at −50 mV, AtGTR1
  inward current: ~10 nA
[2]
  uptake by AtGTR2 measured by LC-MS analysis of oocyte extracts: took up

## C[C@H](N)C(=O)N[C@@H](Cc1cnc[nH]1)C(=O)O [ala-his] (H-Ala-His-OH)
[1]
  currents on perfusion: did not result in any detectable currents

## CC(NC(=O)C(N)CC(=O)O)C(=O)O (stereo not shown) [asp-ala]
[1]
  currents on perfusion: did not result in any detectable currents

## NCC(=O)NCC(=O)NCC(=O)O [gly-gly-gly] (H-Gly-Gly-Gly-OH)
[1]
  currents on perfusion: did not result in any detectable currents

## CC(C)C[C@H](NC(=O)CN)C(=O)O [gly-leu]
[1]
  currents on perfusion: did not result in any detectable currents

## CSCC[C@H](N)C(=O)N[C@@H](C)C(=O)N[C@@H](CO)C(=O)O [met-ala-ser] (H-Met-Ala-Ser-OH)
[1]
  currents on perfusion: did not result in any detectable currents

## O=S(=O)(O)O/N=C(\Cc1ccc(O)cc1)S[C@@H]1O[C@H](CO)[C@@H](O)[C@H](O)[C@H]1O [pOHBG, p-hydroxybenzyl-GSL]
[2]
  uptake by AtGTR2 measured by LC-MS analysis of oocyte extracts: took up

B1: GTR2 T58A: GTR2 of SEQ ID No: 4 with T at position 58 for A (protein, listed as Arabidopsis thaliana)
chain: T2 sequence (Q9LV10 1-616) with T58A
[3]
  4-MTB transport activity: keeps the transport activity intact

B2: GTR2 T117A: GTR2 of SEQ ID No: 4 with T at position 117 for A (protein, listed as Arabidopsis thaliana)
chain: T2 sequence (Q9LV10 1-616) with T117A
[3]
  4-MTB transport activity: block the transport activity

B3: GTR2 T58D: GTR2 of SEQ ID No: 4 with T at position 58 for D (protein, listed as Arabidopsis thaliana)
chain: T2 sequence (Q9LV10 1-616) with T58D
[3]
  4-MTB transport activity: inactivates the transport

B4: GTR2 T117D: GTR2 of SEQ ID No: 4 with T at position 117 for D (protein, listed as Arabidopsis thaliana)
chain: T2 sequence (Q9LV10 1-616) with T117D
[3]
  4-MTB transport activity: block the transport activity

B5: GTR1 S22A: GTR1 of SEQ ID NO: 2 with S at position 22 for A, mimicking dephosphorylation (protein, listed as Arabidopsis thaliana)
chain: T1 sequence (Q944G5 31-636 limits assumed) with S22A
[3]
  4-MTB transport activity: turns of f transport completely

B6: GTR1 S22D: GTR1 of SEQ ID NO: 2 with S at position 22 for D, mimicking phosphorylation (protein, listed as Arabidopsis thaliana)
chain: T1 sequence (Q944G5 31-636 limits assumed) with S22D
[3]
  4-MTB transport activity: keeps the import intact

B7: GTR1 T105D: GTR1 of SEQ ID NO: 2 with T at position 105 for D (protein, listed as Arabidopsis thaliana)
chain: T1 sequence (Q944G5 31-636 limits assumed) with T105D
[3]
  4-MTB transport activity: block the transport activity

B8: GTR1 T105A: GTR1 of SEQ ID NO: 2 with T at position 105 for A (protein, listed as Arabidopsis thaliana)
chain: T1 sequence (Q944G5 31-636 limits assumed) with T105A
[3]
  4-MTB transport activity: block the transport activity
